Where two headings read alike, the source gives them in different places.
Experiments:
[1] = test system: Klebsiella pneumoniae Exp. 52 145; experiment: MIC, dilution in liquid medium; format: cell-based
How it was run: (§1)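 Broth dilution in tubes with graded compound doses. Incubation at 37° C, 24–48 hours. Transillumination endpoint gives MIC in […].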

[2] = test system: Klebsiella pneumoniae 2 536 Resistant Gentamicine; experiment: MIC, dilution in liquid medium; format: cell-based
How it was run: as §1

[3] = test system: Staphylococcus aureus ATCC 5 638 Pen-Sensible = UC 1061; experiment: MIC, dilution in liquid medium; format: cell-based; conditions: 48 h
How it was run: as §1

[4] = test system: Escherichia Coli Resistant Gentamicine, Tobramycine R 55 123 D; experiment: MIC, dilution in liquid medium; format: cell-based
How it was run: as §1

[5] = test system: Proteus mirabilis (indol-) A 235; experiment: MIC, dilution in liquid medium; format: cell-based
How it was run: as §1

[6] = test system: Escherichia Coli Sensible Tetracycline ATCC 9 637 = 1020; experiment: MIC, dilution in liquid medium; format: cell-based
How it was run: as §1

[7] = test system: Bacillus subtilis ATCC 6 633; experiment: MIC, dilution in liquid medium; format: cell-based
How it was run: as §1

[8] = test system: Streptococcus faecalis 99 F 74; experiment: MIC, dilution in liquid medium; format: cell-based
How it was run: as §1

[9] = test system: Escherichia Coli Resistant Tetracycline ATCC 11 303 = UC 1261; experiment: MIC, dilution in liquid medium; format: cell-based
How it was run: as §1

[10] = test system: Streptococcus faecalis 5 432; experiment: MIC, dilution in liquid medium; format: cell-based
How it was run: as §1

[11] = test system: Proteus vulgaris (indol+) A 232; experiment: MIC, dilution in liquid medium; format: cell-based; conditions: Proteus vulgaris, read-out: M.I.C.
How it was run: as §1

[12] = test system: Streptococcus pyogenes A 561; experiment: MIC, dilution in liquid medium; format: cell-based
How it was run: as §1

[13] = test system: Pseudomonas 3 935 Exp. SG; experiment: MIC, dilution in liquid medium; format: cell-based
How it was run: as §1

[14] = test system: Staphylococcus aureus UC 1 128 Pen-Resistant; experiment: MIC, dilution in liquid medium; format: cell-based
How it was run: as §1

Providencia Du 48 = experiment: MIC, dilution in liquid medium; format: cell-based
How it was run: as §1

[15] = test system: Escherichia Coli Exp. TO26 B6; experiment: MIC, dilution in liquid medium; format: cell-based
How it was run: as §1

[16] = test system: Salmonella typhimurium 420; experiment: MIC, dilution in liquid medium; format: cell-based
How it was run: as §1

[17] = test system: Staphylococcus aureus exp. n° 54 146; experiment: MIC, dilution in liquid medium; format: cell-based
How it was run: as §1

Acute toxicity in mice = format: in vivo, female mice of Swiss CD1 Specific Pathogen Free Strain; conditions: for Total Mortality: 4 days
Procedure: The acute toxicity of the product of Example 7 was determined on groups of 8 to 10 female mice of Swiss CD1 Specific Pathogen Free Strain (stock CH.River-France), with an average weight of 19 to 21 g, for each dose of the compound.
The animals had injection in the caudal vein in a variable volume at a rate of 1 ml/mn of the product of Example 7 dissolved at a concentration of 100 mg/ml in sterile apyrogen distilled water.

[18] = test system: Salmonella typhimurium 5210; experiment: Experimental infection with Salmonella typhimurium in mice; format: in vivo
Procedure: Groups of 10 mice with an average weight of 20.5 g were intraperitoneally injected with 0.5 ml of a 24 hour old culture in oxoid bouillon of Salmonella typhimurium 5210 diluted 1/75 with distilled water. The product of Example 7 was administered subcutaneously one hour and 4, 8, 24 and 32 hours after the infection and the results, determined as before, are reported in the following Table.

In the case of `CO/N=C(\C(=O)N[C@@H]1C(=O)N2C(C(=O)O)=C(COC(C)=O)CS[C@H]12)c1csc(N)n1` [Example 7, sodium 3-acetoxymethyl-7-[2-(2-amino-4-thiazolyl)-2-methoxyiminoacetamido]-ceph-3-eme-4-carboxylate], the M.I.C. ([1]; 24 H) is reported as ≤ 0,02 μg/ml, the M.I.C. ([1]; 48 H) is reported as no more than 0.02 µg/mL and the M.I.C. ([2]; 24 H) is reported as 0,2 μg/ml. The M.I.C. ([2]; 48 H) was 0,2 μg/ml, the MIC [3] was 2 µg/mL and the M.I.C. ([4]; 24 H) was 0,1 μg/ml. The M.I.C. ([4]; 48 H) was 0,1 μg/ml, the M.I.C. ([5]; 24 H) was ≤ 0,02 μg/ml and the M.I.C. ([5]; 48 H) was ≤ 0,02 μg/ml. For the same compound, the M.I.C. ([6]; 24 H) was 0,1 μg/ml, the MIC ([6]; Escherichia coli, ATCC9, 48 h, 48 H, read-out: M.I.C.) was 0.1 µg/mL and the M.I.C. ([7]; 24 H) was 1 µg/mL. It also gave a M.I.C. ([7]; 48 H) of 2 µg/mL, a M.I.C. ([8]; 24 H) of 3 µg/mL and an MIC ([8]; Enterococcus faecalis, 99F74, 48 h, read-out: M.I.C.) of 10 µg/mL. For the same compound, the M.I.C. ([9]; 24 H) was ≤ 0,02 μg/ml, the M.I.C. ([9]; 48 H) was ≤ 0,02 μg/ml and the M.I.C. ([10]; 24 H) was 1 µg/mL. For the same compound, the M.I.C. ([10]; 48 H) was 3 µg/mL, the MIC ([11]; 24 h) was 0.2 µg/mL and the MIC ([11]; 48 h) was 0.6 µg/mL. For the same compound, the M.I.C. ([12]; 24 H) was 0,01 μg/ml, the M.I.C. ([12]; 48 H) was 0,01 μg/ml and the M.I.C. ([13]; 24 H) was 10 µg/mL. It also gave a M.I.C. ([13]; 48 H) of 20 µg/mL, a M.I.C. ([14]; 24 H) of 2 µg/mL and a M.I.C. ([14]; 48 H) of 3 µg/mL. For the same compound, the M.I.C. (Providencia Du 48; 24 H) was 1 µg/mL, the M.I.C. (Providencia Du 48; 48 H) was 2 µg/mL and the M.I.C. ([15]; 24 H) was 0,05 μg/ml. The M.I.C. ([15]; 48 H) was 0,05 μg/ml, the M.I.C. ([16]; 24 H) was 0,1 μg/ml and the M.I.C. ([16]; 48 H) was 20 µg/mL. The M.I.C. ([17]; 48 H) was 2 µg/mL, the MIC ([17]; Staphylococcus aureus, 24 h) was 2 µg/mL and the lethal dose (Acute toxicity in mice; caudal vein, mice) was “above 2000 mg/kg”. The “Total Mortality” value (Acute toxicity in mice; dose 500 mg, caudal vein) was 0/10, the “Total Mortality” value (Acute toxicity in mice; dose 1000 mg, caudal vein) was 0/10 and the “Total Mortality” value (Acute toxicity in mice; dose 2000 mg, caudal vein) was 0/8. The Symptomatology (Acute toxicity in mice; following the injections and during the observation period) was “No symptoms of intoxication were noted”, the “MORTALITY AFTER 6J” value ([18]; 0,1 mg subcutaneously) was 3 and the “MORTALITY AFTER 7J” value ([18]; 0,1 mg subcutaneously) was 3. For the same compound, the “MORTALITY AFTER 8J” value ([18]; 0,1 mg subcutaneously) was 1, the “Mice alive on the 10th day” value ([18]; 0,1 mg subcutaneously) was 3/10 and the “MORTALITY AFTER 5J” value ([18]; 0,5 mg subcutaneously) was 1. For the same compound, the “MORTALITY AFTER 6J” value ([18]; 0,5 mg subcutaneously) was 1, the “MORTALITY AFTER 7J” value ([18]; 0,5 mg subcutaneously) was 1 and the “Mice alive on the 10th day” value ([18]; 0,5 mg subcutaneously) was 7/10. The “MORTALITY AFTER 7J” value ([18]; 0,25 mg subcutaneously) was 2, the “MORTALITY AFTER 8J” value ([18]; 0,25 mg subcutaneously) was 1 and the “MORTALITY AFTER 9J” value ([18]; 0,25 mg subcutaneously) was 2. The “Mice alive on the 10th day” value ([18]; 0,25 mg subcutaneously) was 5/10, the “MORTALITY AFTER 8J” value ([18]; 1 mg subcutaneously) was 1 and the “Mice alive on the 10th day” value ([18]; 1 mg subcutaneously) was 9/10. For the same compound, the “Mice alive on the 10th day” value ([18]; 2 mg subcutaneously) was 10/10.
